In brackets after ≈: the same amount, converted by molar mass. Where two headings read alike, the source gives them in different places.
Tested on: S. aureus ATCC 29213
Assay: Broth microdilution MIC
Type: cell-based, Staphylococcus aureus
Details: for MIC: Staphylococcus aureus, ATCC29213, read-out: Minimal Inhibitory Concentration, S. aureus ATCC 29213
Method: The process for preparing susceptibility test medium are the following steps: • a. Preparing Mueller Hinton Broth II medium by adding 22 grams powdered media to 1.0 liter distilled water; • b. Autoclaving (121° C., 15 psi, 15 minutes) and cooling the medium; • c. Adding Oxyrase® up to about 10% final volume and keeping at 35-37° C. in an incubator for 30 minutes; • d. Adding about 50 μL to each well of a 96 well microtiter plate; • e. Weighing drug and adding broth to drug to bring up to about (standard 128 μg/ml); • f. Adding 50 μL of the drug to the first column of the titer plate; • g. Diluting by two-fold serial diluting across or down the plate. • h. Preparing a Prompt™ inoculum at 10^8 CFU/ml; • i. Diluting inoculum 1:100 in the broth at […] in 9.9 ml (1:100) is 10^6 colony forming units (CFU) forming the adjusted inoculum; • j. Adding 50 μL of the adjusted inoculum to the wells of the microtiter plate; • k. Incubating the plates at 35-37° C. for 18-22 hours; and • l. Reading, with the unaided eye, the MIC.
The in vitro activities of tigecycline and control antibiotics were determined by the broth microdilution method as recommended by the NCCLS. (National Committee for Clinical Laboratory Standards, 2003. Methods for Dilution Antimicrobial Susceptibility Tests for Bacteria That Grow Aerobically; Approved Standards: M7-A6, Sixth ed, vol. 23., National Committee for Clinical Laboratory Standards Wayne, Pa.) was used for the standard procedures. MBH with 5% lysed horse blood was used for testing S. pneumoniae and Haemophilus Test Medium was used for testing H. influenzae. Oxyrase® (Oxyrase Inc, Mansfield, Ohio) was used according to the manufacturer's instructions by adding 1 ml of Oxyrase® to 50 ml of media. Media age studies were performed by preparing MHB in multiple flasks, then storing the media under various conditions. MICs were usually performed in duplicate on each day of testing. Storage under anaerobic conditions was conducted in an anaerobic chamber (MACS MG 1000, Don Whitley Scientific LTD). The pH of the media was determined by pH meter (Corning 430). A comparison of the in vitro activity of tigecycline by agar and broth dilution methodolgies with and without Oxyrase® against clinical isolates is shown in Table 1.

[1] = Table 8, S. aureus ATCC 29213, Mueller Hinton Broth + Oxyrase, n = 240
[2] = Table 8, S. aureus ATCC 29213, Mueller Hinton Broth, n = 320
[3] = Table 9, S. aureus ATCC 29213, Mueller Hinton Broth + Oxyrase, n = 29
[4] = Table 9, S. aureus ATCC 29213, Mueller Hinton Broth, n = 131

CN(C)c1cc(NC(=O)CNC(C)(C)C)c(O)c2c1C[C@H]1C[C@H]3[C@H](N(C)C)C(O)=C(C(N)=O)C(=O)[C@@]3(O)C(O)=C1C2=O [Tigecycline, tigecycline]
MIC (Aged Media + Oxyrase, N = 8): 0.12 to 0.25 µg/mL
MIC (Aged media, N = 8): 0.5 µg/mL (≈ 0.854 µM)
MIC (Commercially Prepared media, N = 4): 0.25 µg/mL (≈ 0.427 µM)
MIC (Fresh Media + Oxyrase, N = 8): 0.12 to 0.25 µg/mL
MIC (Freshly Prepared Media, N = 8): 0.25 µg/mL (≈ 0.427 µM)
MIC (Freshly Prepared media, N = 4): 0.06 to 0.12 µg/mL (≈ 0.102 to 0.205 µM)
MIC (MHB II + 0.05% Catalase): 0.5 µg/mL
MIC (MHB II + 0.05% L-ascorbic Acid): 2 µg/mL
MIC (MHB II + 0.05% L-cysteine): 0.25 µg/mL
MIC (MHB II + 0.05% Thioglycolate): 0.25 µg/mL
MIC (MHB II + 2% Oxyrase): 0.12 µg/mL
MIC (Mueller Hinton Broth II (Fresh)): 0.25 µg/mL (≈ 0.427 µM)
MIC (Mueller Hinton Broth II (MHB II)): 0.25 to 0.5 µg/mL (≈ 0.427 to 0.854 µM)
MIC (media Aged Anaerobic, N = 4): 0.06 to 0.12 µg/mL (≈ 0.102 to 0.205 µM)
Number of Occurrences of MIC 0.06 ug/ml [1]: 14
Number of Occurrences of MIC 0.12 ug/ml [1]: 203
Number of Occurrences of MIC 0.25 ug/ml [1]: 22
Number of Occurrences of MIC 0.5 ug/ml [1]: 1
Number of Occurrences of MIC 0.12 ug/ml [2]: 1
Number of Occurrences of MIC 0.25 ug/ml [2]: 219
Number of Occurrences of MIC 0.5 ug/ml [2]: 29
Number of Occurrences of MIC 1 ug/ml [2]: 62
Number of Occurrences of MIC 2 ug/ml [2]: 9
Number of Occurrences of MIC 0.06 ug/ml [3]: 2
Number of Occurrences of MIC 0.12 ug/ml [3]: 15
Number of Occurrences of MIC 0.25 ug/ml [3]: 12
Number of Occurrences of MIC 0.06 ug/ml [4]: 1
Number of Occurrences of MIC 0.12 ug/ml [4]: 27
Number of Occurrences of MIC 0.25 ug/ml [4]: 78
Number of Occurrences of MIC 0.5 ug/ml [4]: 25

Source: patent US20050130252A1, “Stabilized susceptibility tests of aerobic pathogens” (Wyeth Holdings Corporation, priority 2003, published 2005)
